The term IC50 denotes the concentration needed to halve the response being measured. A word on the Ki: it is a measure of affinity in units of concentration, obtained from inhibition or displacement.

Data on one compound can be found in paper PMC9074662, “Discovery of dihydrooxazolo[2,3-a]isoquinoliniums as highly specific inhibitors of hCE2” (RSC Advances, 2019).

Where “and” joins values, the source holds several entries; their conditions need not be identical. Equal values may be shown once.

For test [1], the target named is T1, hCE2 (Homo sapiens, UniProt O00748).
T1 construct: tissue Bioreclamation IVT lot no; X008067; host or cells: pooled human liver microsomes, 50 donors
T1 sequence (O00748 27-559): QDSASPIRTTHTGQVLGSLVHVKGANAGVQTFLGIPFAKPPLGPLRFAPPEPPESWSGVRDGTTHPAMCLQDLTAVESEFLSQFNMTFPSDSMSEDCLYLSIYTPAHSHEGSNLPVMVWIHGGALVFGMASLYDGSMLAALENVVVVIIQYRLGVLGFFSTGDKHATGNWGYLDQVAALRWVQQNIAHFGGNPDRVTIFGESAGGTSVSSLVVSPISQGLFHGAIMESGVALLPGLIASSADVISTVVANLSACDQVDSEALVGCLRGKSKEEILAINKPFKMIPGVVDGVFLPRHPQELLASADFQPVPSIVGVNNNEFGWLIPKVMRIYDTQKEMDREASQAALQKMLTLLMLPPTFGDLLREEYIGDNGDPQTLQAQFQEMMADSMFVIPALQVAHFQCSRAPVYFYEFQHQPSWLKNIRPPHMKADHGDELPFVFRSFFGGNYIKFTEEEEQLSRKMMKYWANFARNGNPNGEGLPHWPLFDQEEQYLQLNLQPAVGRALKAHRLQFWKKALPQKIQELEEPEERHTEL
Briefly: hCE2 inhibition assay (FD hydrolysis in human liver microsomes). In kind it is biochemical. The procedure: In brief, 200 μL incubation mixture containing 0.1 M PBS (PH = 7.4), human liver microsomes (2 μg mL^−1, final concentration) and each inhibitor. […] After incubating for 30 min at 37 °C in a shaking bath, the reaction was stopped by the addition of acetonitrile (200 μL). The chemical structure of FD and its hydrolytic metabolite (fluorescein), as well as the detection conditions for fluorescein are depicted in Table S1. ^† The negative control incubation (DMSO only) was also carried out under the same conditions.[42] The residual activity was calculated using the formula mentioned above in hCE1 inhibition assay.
(In general: Liver microsomes are a subcellular fraction often used to study metabolism.)

In test [2] the target is T2, intracellular hCE2 (Homo sapiens, UniProt O00748).
T2 construct: endogenous in cells; host or cells: HepG2
T2 sequence (O00748 27-559): T1 sequence (O00748 27-559)
Briefly: Inhibition of intracellular hCE2 in living HepG2 cells (NCEN hydrolysis, fluorescence imaging). In kind it is cell-based. The method, then:
In view of that hCE2 was an intracellular enzyme, the inhibition potential of 23o was investigated in living HepG2 cells. The HepG2 cells were cultured in Modified Eagle's Medium (MEM) with 5% CO2 and 0.1% antibiotic–antimycoticmix antibiotic at 37 °C, supplemented with 10% fetal bovine serum (FBS) and used NCEN as substrate probe to assay the 23o inhibition potential toward hCE2.
For fluorescence imaging, HepG2 cells were seeded in 96-well plates (8000 cells per well) with complete medium and then incubated for 24 hours. Afterwards, the cells were washed twice with FBS-free culture medium and then preincubated in the medium containing 23o (prepared in FBS-free at various concentrations) for 30 min with 5% CO2 at 37 °C. HepG2 cells were then co-incubated with NCEN (final concentration, 10 μM) for another 50 min to assess the intracellular hCE2 function, respectively. The living cells were imaged and analyzed using an ImageXpress® Micro Confocal High-Content Imaging system (Molecular Devices, Austria).

Test [3] addresses T3, hCE1 (Homo sapiens, UniProt P23141).
T3 construct: tissue Bioreclamation IVT lot no; X008067; host or cells: pooled human liver microsomes, 50 donors
T3 sequence (P23141 18-567): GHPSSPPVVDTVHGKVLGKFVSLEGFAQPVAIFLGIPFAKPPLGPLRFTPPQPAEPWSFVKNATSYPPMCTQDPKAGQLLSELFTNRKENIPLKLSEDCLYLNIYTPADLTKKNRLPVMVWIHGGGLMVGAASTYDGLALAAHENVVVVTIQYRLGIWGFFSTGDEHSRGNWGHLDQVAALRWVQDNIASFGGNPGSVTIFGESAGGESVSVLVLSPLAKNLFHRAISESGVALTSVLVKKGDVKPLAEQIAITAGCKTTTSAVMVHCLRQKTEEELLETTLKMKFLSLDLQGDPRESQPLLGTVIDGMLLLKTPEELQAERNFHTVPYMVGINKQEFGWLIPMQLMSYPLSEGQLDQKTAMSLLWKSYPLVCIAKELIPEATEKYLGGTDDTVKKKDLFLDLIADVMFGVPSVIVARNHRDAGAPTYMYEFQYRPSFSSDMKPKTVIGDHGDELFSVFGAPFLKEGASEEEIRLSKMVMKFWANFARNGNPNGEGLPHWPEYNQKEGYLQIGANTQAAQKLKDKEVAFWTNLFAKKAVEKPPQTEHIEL
Briefly: hCE1 inhibition assay (DME hydrolysis in human liver microsomes). In kind it is biochemical. The note with it: DME probe substrate (3 μM), HLM, PBS pH 6.8, 37 °C. From the text:
We designed and synthesized more than 30 derivatives of DCZ0358. However, the five-ring quaternary ammonium component of some derivatives was unstable to decompose easily into its hydrolyzate 23b. With 12 stable compounds in hand, we conducted experiments to assay inhibitory activities against both hCE1 and hCE2 using a panel of fluorescent probe substrates.[33–36]D-Luciferin methyl ester (DME) was used as a probe substrate, and nevadensin (a specific hCE1 inhibitor) was used as a positive inhibitor control for hCE1. […] DME was used as a probe substrate for evaluating the inhibitory effects of all DCZ0358 derivatives on hCE1, while nevadensin (a specific hCE1 inhibitor) was used as a positive control.[39] Briefly, 100 μL incubation mixture containing 91 μL PBS (pH 6.8), 2 μL inhibitor at different concentrations and 5 μL HLM (1 μg mL^−1, final concentration), were pre-incubated at 37 °C for 10 min. Subsequently, 2 μL DME (3 μM final concentration, close to the Km value of DME in HLM) was added to initiate the reaction. After incubating for 10 min at 37 °C in a shaking bath, the reaction was stopped by the addition of LDR (100 μL). The microplate reader (SpectraMax® iD3, Molecular Devices, Austria) was used for luminescence measurements. The gain value of luminescence detection was set at 140 volts, and the integration time was set at 1 s. The chemical structure of DME and its hydrolytic metabolite (D-luciferin), as well as the detection conditions for D-luciferin are depicted in Table S1. ^† The negative control incubation (DMSO only) was carried out under the same conditions. The residual activity was calculated using the following formula, the residual activity (%) = (the florescence intensity in the presence of inhibitor)/the florescence intensity in negative control × 100%. The residual activities are show in Fig. S1. ^†

For `COc1cc(COc2cc(-c3cc4ccc(OC)c(OC)c4c4[n+]3C(OC)CO4)ccc2OC)cc(OC)c1` (stereo not shown) [Compound 23o, 5-(3-((3,5-Dimethoxybenzyl)oxy)-4-methoxyphenyl)-3,9,10-trimethoxy-2,3-dihydrooxazolo[2,3-a]isoquinolin-4-ium], the IC50 is 1.19 µM in test [1] (FD probe substrate (5 μM), HLM, PBS pH 7.4, 37 °C); 2.29 µM in test [2] (HepG2 cells, NCEN 10 μM substrate, read-out: IC50 against intracellular hCE2 in living HepG2 cells); over 100 µM in test [3]. Also, the inhibition constant (Ki) in test [1] (Lineweaver-Burk plots, FD substrate, read-out: Ki against hCE2-mediated FD hydrolysis) was 0.84 µM and 0.843 µM. In addition, the “Inhibition mode against hCE2-mediated FD hydrolysis” value in test [1] (inhibition kinetics, FD substrate) was “mixed inhibitor”. For the same compound, the “Selectivity IC50(hCE1)/IC50(hCE2)” value in test [1] (ratio of IC50 values, hCE2 over hCE1 selectivity (fold)) is on record as over 83.89. Moreover, in test [2] (living HepG2 cells, 0-20 μM, NCEN 10 μM, 50 min), the “Inhibition of intracellular hCE2-mediated NCEN hydrolysis (fluorescence intensity, green channel)” value is “strongly inhibit”.
